pIC50: −log10 of the molar value.

By pIC50 is commonly meant the IC50 on a negative log10 scale, so that one unit is a factor of ten. Low readings indicate a large IC50, high ones a small IC50.

Tested on in one data set: not listed separately
The data set can be described thus: Plasma protein binding (equilibrium dialysis), mouse plasma. The data set is classed as in vitro ADME. The conditions noted are these: read-out: PPB mouse fu. On the procedure:
(§1) Plasma Protein Binding (PPB)
(§2) Binding of test compound to plasma was determined using equilibrium dialysis (ED) and quantitative mass spectrometry interfaced with liquid chromatography (LC-MS). In brief, ED was performed with dialysis devices consisting of two chambers separated by a semipermeable membrane with a molecular weight cut-off of 5-10 kg/mol. One chamber was filled with commercially sourced plasma (mouse and human plasma, respectively) or serum (10% FCS in PBS) containing 1-10 μmol/L test compound and the other chamber was filled with phosphate-buffer saline (PBS) with or without dextran. The dialysis chamber was incubated for 3-5 hours at 37° C. After incubation, protein was precipitated from aliquots of each chamber and the concentration of test compound in the supernatant of the plasma-containing compartment (cplasma) and of the buffer-containing compartment (Cbuffer) was determined by LC-MS. The fraction of unbound test compound (not bound to plasma) (fu) was calculated according to the following equation: […]
(In equilibrium dialysis only unbound substance equilibrates across the membrane.)
As for `C=CC(=O)N1CCN(c2cc(O[C@@H](C)[C@@H]3CCCN3C)nc(-c3cc([C@@]4(C)CCCc5sc(N)c(C#N)c54)on3)n2)[C@H](C)C1` [Ib-1], the fraction unbound was 0.011.
On the same count and under the same terms, the result for `C=CC(=O)N1[C@@H](C)CN(c2cc(O[C@@H](C)[C@@H]3CCCN3C)nc(-c3cc([C@@]4(C)CCCc5sc(N)c(C#N)c54)on3)n2)C[C@@H]1C` [Ib-4] reads 0.007; that for `C=CC(=O)N1CCN(c2cc(O[C@@H](C)[C@@H]3CCCN3C)nc(-c3cc([C@@]4(C)CCCc5sc(N)c(C#N)c54)on3)n2)CC12CC2` [Ib-5], 0.004.
As to `C=CC(=O)N1CCN(c2cc(O[C@@H](C)[C@@H]3CCCN3C)nc(-c3cc(C4(C)CCCc5sc(N)c(C#N)c54)on3)n2)CC1` (stereo partly drawn) [Ib-6], the fraction unbound was 0.014.
On the same count and under the same terms, the result for `C=C(F)C(=O)N1CCN(c2cc(O[C@@H](C)[C@@H]3CCCN3C)nc(-c3cc([C@@]4(C)CCCc5sc(N)c(C#N)c54)on3)n2)[C@H](C)C1` [Ib-10] reads 0.005; that for `C=C(F)C(=O)N1[C@@H](C)CN(c2cc(O[C@@H](C)[C@@H]3CCCN3C)nc(-c3cc([C@@]4(C)CCCc5sc(N)c(C#N)c54)on3)n2)C[C@@H]1C` [Ib-11], 0.003; that for `COC/C=C/C(=O)N1CCN(c2cc(O[C@@H](C)[C@@H]3CCCN3C)nc(-c3cc([C@@]4(C)CCCc5sc(N)c(C#N)c54)on3)n2)[C@H](C)C1` [Ib-14], 0.01.
On to `C=CC(=O)N1[C@@H](C)CN(c2cc(O[C@@H](C)[C@@H]3CCCN3C)nc(-c3cc([C@@]4(C)CCCc5sc(N)c(C#N)c54)no3)n2)C[C@@H]1C` [Ic-4], for which the fraction unbound was 0.011.
Regarding `C=CC(=O)N1[C@H](C)CN(c2cc(O[C@@H](C)[C@@H]3CCCN3C)nc(-c3cc([C@@]4(C)CCCc5sc(N)c(C#N)c54)no3)n2)C[C@@H]1C` [Ic-5], the fraction unbound is 0.003.

The target of a further data set is T1, KRAS G12C::SOS1 protein-protein interaction (Homo sapiens, UniProt P01116, C118S/C51S/C80L/G12C).
T1 construct: His6 (N); host or cells: E. coli
T1 sequence (P01116 1-169 isoform P01116-2 G12C/C51S/C80L/C118S): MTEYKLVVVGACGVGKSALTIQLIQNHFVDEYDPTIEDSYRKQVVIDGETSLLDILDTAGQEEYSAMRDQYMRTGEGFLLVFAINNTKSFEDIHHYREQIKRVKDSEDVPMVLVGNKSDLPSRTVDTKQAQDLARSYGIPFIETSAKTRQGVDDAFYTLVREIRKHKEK
In words: KRAS::SOS1 AlphaScreen binding assay. The following applies: KRAS G12C::SOS1 AlphaScreen. The source says: KRAS::SOS1 AlphaScreen Binding Assay
Reagents: • GST-tagged SOS1 (564_1049_GST_TEV_ECO) produced in-house • GST-TEV-SOS1 (564-1049) is purchased from Viva Biotech Ltd. • The expression construct of KRAS G12C (amino acids 1-169 of reference sequence P01116-2 (uniprot), with additional mutations: C51S, C80L, and C118S) containing a C-terminal avi-tag was obtained by gene synthesis (GeneArt, Thermo Fisher) in donor vector (pDONR-221) and transferred by recombinant cloning into pDEST17 vector bearing an N-terminal His6-tag. The protein was expressed in E. coli and the purified protein was biotinylated with the E. coli biotin ligase (BirA) before usage. • GDP (Sigma Cat No G7127) • AlphaLISA Glutathione Acceptor Beads (PerkinElmer, Cat No AL109) • AlphaScreen Streptavidin Donor Beads (PerkinElmer Cat No 6760002) • Assay plates: Proxiplate-384 PLUS, white (PerkinElmer, Cat No 6008289)
Assay Buffer: • 1×PBS • 0.1% BSA • 0.05% Tween 20
7.5 nM (final assay concentration) KRAS G12C, 10 μM (final assay concentration) GDP and 5 nM (final assay concentration) GST-SOS1 are mixed in assay buffer prior to use and kept at room temperature.
AlphaLISA Glutathione Acceptor Beads and AlphaScreen Streptavidin Donor Beads are mixed in assay buffer at a concentration of 10 μg/mL (final assay concentration) each prior to use and kept at room temperature.
Compounds are diluted to a final start concentration of 100 μM and are tested in duplicate. Assay-ready plates (ARPs) are generated using an Access Labcyte Workstation with a Labcyte Echo 550 or 555 accoustic dispenser. For compound a start concentration of 100 μM, 150 nL of compound solution is transferred per well in 11 concentrations in duplicate with serial 1:5 dilutions.
The assay is run using a fully automated robotic system in a darkened room below 100 Lux. 10 μL of KRAS::SOS1 GDP mix is added into columns 1-24 to the 150 nL of compound solution (final dilution in the assay 1:100, final DMSO concentration 1%).
After 30 minutes incubation time 5 μL of bead mix is added into columns 1-23. Plates are kept at room temperature in a darkened incubator. After further 60 minutes incubation, the signal is measured using a PerkinElmer Envision HTS Multilabel Reader using the AlphaScreen specifications from PerkinElmer. Each plate contains the following controls: • diluted DMSO+KRAS::SOS1 GDP mix+bead mix • diluted DMSO+KRAS::SOS1 GDP mix
IC50 values are calculated and analyzed using a 4 parametric logistic model.
Tables of example compounds disclosed herein contain IC50 values determined using the above assay.
A general note: In Alpha technology, singlet oxygen from a donor bead excites a nearby acceptor bead.
Regarding `C=CC(=O)N1CCN(c2cc(O[C@@H](C)[C@@H]3CCCN3C)nc(-c3cc([C@@]4(C)CCCc5sc(N)c(C#N)c54)on3)n2)[C@H](C)C1` [Ib-1], the negative-log IC50 (pIC50) was 8.80.
In turn, `C=CC(=O)N1[C@@H](C)CN(c2cc(O[C@@H](C)[C@@H]3CCCN3C)nc(-c3cc([C@@]4(C)CCCc5sc(N)c(C#N)c54)on3)n2)C[C@@H]1C` [Ib-4] gave a pIC50 of 8.80.
Same read-out and setting: the result for `C=CC(=O)N1CCN(c2cc(O[C@@H](C)[C@@H]3CCCN3C)nc(-c3cc([C@@]4(C)CCCc5sc(N)c(C#N)c54)on3)n2)CC12CC2` [Ib-5] reads 8.52.
On the same count and under the same terms, to `C=CC(=O)N1CCN(c2cc(O[C@@H](C)[C@@H]3CCCN3C)nc(-c3cc(C4(C)CCCc5sc(N)c(C#N)c54)on3)n2)CC1` (stereo partly drawn) [Ib-6] belongs 8.52; to `C=C(F)C(=O)N1CCN(c2cc(O[C@@H](C)[C@@H]3CCCN3C)nc(-c3cc([C@@]4(C)CCCc5sc(N)c(C#N)c54)on3)n2)[C@H](C)C1` [Ib-10], 7.89; to `C=C(F)C(=O)N1[C@@H](C)CN(c2cc(O[C@@H](C)[C@@H]3CCCN3C)nc(-c3cc([C@@]4(C)CCCc5sc(N)c(C#N)c54)on3)n2)C[C@@H]1C` [Ib-11], 7.82.
The same measure, in the same setting: the result for `COC/C=C/C(=O)N1CCN(c2cc(O[C@@H](C)[C@@H]3CCCN3C)nc(-c3cc([C@@]4(C)CCCc5sc(N)c(C#N)c54)on3)n2)[C@H](C)C1` [Ib-14] reads 8.22.
In turn, `C=CC(=O)N1[C@@H](C)CN(c2cc(O[C@@H](C)[C@@H]3CCCN3C)nc(-c3cc([C@@]4(C)CCCc5sc(N)c(C#N)c54)no3)n2)C[C@@H]1C` [Ic-4] gave a pIC50 of 8.72.
Same read-out and setting: the result for `C=CC(=O)N1[C@H](C)CN(c2cc(O[C@@H](C)[C@@H]3CCCN3C)nc(-c3cc([C@@]4(C)CCCc5sc(N)c(C#N)c54)no3)n2)C[C@@H]1C` [Ic-5] reads 8.30.

Tested on in another data set: not listed separately
The data set can be described thus: Plasma protein binding (equilibrium dialysis), serum 10% FCS in PBS. The data set is classed as in vitro ADME. The conditions noted are these: bovine, 10% FCS in PBS (serum), read-out: PPB 10% FCS fu. On the procedure:
as §1, §2
With `C=CC(=O)N1CCN(c2cc(O[C@@H](C)[C@@H]3CCCN3C)nc(-c3cc([C@@]4(C)CCCc5sc(N)c(C#N)c54)on3)n2)[C@H](C)C1` [Ib-1], the fraction unbound came to 0.075.
On the same count and under the same terms, the result for `C=CC(=O)N1[C@@H](C)CN(c2cc(O[C@@H](C)[C@@H]3CCCN3C)nc(-c3cc([C@@]4(C)CCCc5sc(N)c(C#N)c54)on3)n2)C[C@@H]1C` [Ib-4] reads 0.055.
Still for that read-out and setting: to `C=CC(=O)N1CCN(c2cc(O[C@@H](C)[C@@H]3CCCN3C)nc(-c3cc([C@@]4(C)CCCc5sc(N)c(C#N)c54)on3)n2)CC12CC2` [Ib-5] belongs 0.058.
Same read-out and setting: to `C=CC(=O)N1CCN(c2cc(O[C@@H](C)[C@@H]3CCCN3C)nc(-c3cc(C4(C)CCCc5sc(N)c(C#N)c54)on3)n2)CC1` (stereo partly drawn) [Ib-6] belongs 0.167.
With `C=C(F)C(=O)N1CCN(c2cc(O[C@@H](C)[C@@H]3CCCN3C)nc(-c3cc([C@@]4(C)CCCc5sc(N)c(C#N)c54)on3)n2)[C@H](C)C1` [Ib-10], the fraction unbound turned out to be 0.063.
On the same count and under the same terms, the result for `C=C(F)C(=O)N1[C@@H](C)CN(c2cc(O[C@@H](C)[C@@H]3CCCN3C)nc(-c3cc([C@@]4(C)CCCc5sc(N)c(C#N)c54)on3)n2)C[C@@H]1C` [Ib-11] reads 0.045.
For `COC/C=C/C(=O)N1CCN(c2cc(O[C@@H](C)[C@@H]3CCCN3C)nc(-c3cc([C@@]4(C)CCCc5sc(N)c(C#N)c54)on3)n2)[C@H](C)C1` [Ib-14], the fraction unbound worked out at 0.066.
Same read-out and setting: to `C=CC(=O)N1[C@@H](C)CN(c2cc(O[C@@H](C)[C@@H]3CCCN3C)nc(-c3cc([C@@]4(C)CCCc5sc(N)c(C#N)c54)no3)n2)C[C@@H]1C` [Ic-4] belongs 0.083.
The same measure, in the same setting: to `C=CC(=O)N1[C@H](C)CN(c2cc(O[C@@H](C)[C@@H]3CCCN3C)nc(-c3cc([C@@]4(C)CCCc5sc(N)c(C#N)c54)no3)n2)C[C@@H]1C` [Ic-5] belongs 0.148.
